How the values were obtained:
[1] = tested on: LPS-induced ROS production; assay: ROS production (DCFH-DA) in LPS-treated zebrafish larvae; type: in vivo; conditions: LPS 100 μg/ml + 1 μM UNC0642, 5 h
Experimental: ROS production was visualised using 2′, 7′-dichlorodihydrofluorescein diacetate (DCFH-DA; Sigma-Aldrich), a ROS indicator. Wildtype zebrafish were exposed to Vehicle, LPS (100 μg/ml) or LPS+1 μM UNC0642 by static immersion for 5 h at 28.5° C. and then incubated along with 100 μM DCFH-DA for 1 h at 28.5° C. in the dark, and washed three times (5 min each) with embryo water. DCFH-DA diffuses into cells and is deacetylated by cellular esterases to non-fluorescent 2′, 7′-Dichlorodihydrofluorescin (DCFH), which is rapidly oxidized to highly fluorescent 2′, 7′-Dichlorofluorescein (DCF) by ROS. The fluorescence intensity is propor-tional to the ROS levels within the cell cytosol. Photographs were acquired using a Leica DFC 300-FX camera and a Leica fluorescence microscope, and were processed with Fiji analysis software. Corrected total fluorescence (CTF) was calculated using the following formula: CTF=Integrated density−(Area of selected cell×Mean fluorescence of background readings) H3K9me2 Immunofluorescence Analysis

[2] = tested on: LPS-induced vascular leakage; assay: Vascular leakage (leaked red blood cells in tailfin) in LPS-treated zebrafish larvae; type: in vivo
Experimental: An LPS induced zebrafish sepsis model which mimics the hallmarks of human sepsis was developed (Philip et al., 2017). Zebrafish show varied susceptibility and responsiveness to LPS from different bacterial strains. Exposure of zebrafish larvae at 3 days post-fertilization (dpf) to two types of LPS (LPS from Escherichia coli 0111:B4 (Sigma) at 100 μg/ml for 5-6 hrs; or LPS from Salmonella at 27 μg/ml for 24 hrs) were both effective in inducing tail fin swelling, increased ROS production, increased vascular leakage and increased mortality.
3 dpf Tg (flk1:GFP; gata-1:Dsred) double transgenic larvae were exposed to Vehicle, LPS (100 μg/ml) or LPS+1 μM UNC0642 by static immersion for 6 h at 28.5° C. to induce endothe-lial dysfunction and the resulting leakage of red blood cells. The larvae were then imaged using a Leica fluorescence microscope (Leica Microsystems, Wetzlar, Germany). Red blood cells that leaked out into the tailfin region were quantified.
3 dpf larvae were exposed to LPS by immersion technique. […] Control larvae were exposed to egg water. Survival numbers were recorded and EC50s calculated. The percentage (%) of embryos showing vascular leakage was also recorded and 1050s calculated.

HUVEC monolayer = assay: Trans-endothelial electrical resistance (TEER) across HUVEC monolayer; type: cell-based, human; conditions: LPS 1 μg/ml + UNC0642 2.5 nM, 24 h post treatment
Experimental: To determine the functional significance of G9a inhibition in human cells, solute permeability and electrical resistance across a confluent HUVEC monolayer was assessed. For both experiments, HUVEC were seeded at 1×10^6 cells/ml on Matrigel™ coated 3-μm pore size transwell inserts in 24-well plates from BD Discovery Labware™ (catalog number 354575) and grown to confluency. The cells were then treated with either the vehicle, LPS (1 μg/ml) or LPS (1 μg/ml)+UNC0642 (2.5 nM).
Assessment of trans-endothelial electrical resistance (TEER): At 24 h post treatment, trans endothelial electrical resistance across the HUVEC monolayer was measured using the Endohm-12 (WPI, Florida). UNC0642 improves transendothelial electrical resistance (TEER) which is also an indicator of vessel integrity and stability. (FIG. 11, Panel B)

[3] = tested on: Beas2b human airway epithelial cells; assay: TNFα-induced ROS production (DCF assay) in beas2b cells; type: cell-based; conditions: TNFα 10 ng/mL, 24 hr
Experimental: Beas2b human airway epithelial cells were grown to 70% confluency. Cells were treated with TNFα (10 ng/mL) or an equal volume of nuclease-free water in the presence of 0, 0.25, 2.5, or 25 nM of UNC0642. Cell lysates were collected in 1×PBS after 24 hr and freeze-thawed twice to lyse the cells completely. In vitro ROS was measured using OxiSelect In Vitro ROS/RNS Assay Kit with DCF standard. ROS (nM) was calculated from the standard curve and values were normalized by total amount of protein (as measured by Bradford assay). Values are expressed as mean+/−SEM (average of two experimental replicates).

[4] = tested on: CLP-induced protein exudation into the alveolar space; assay: Mouse CLP model, protein leakage into BALF; type: in vivo; conditions: intravenous infusion of 1 mg/kg
Experimental: The CLP model is a well established clinically relevant model for human sepsis (Smeding et al., 2012; Amatullah et al., 2016). Male 8-12 week old C57/B16 mice (Jackson lab) were randomized to CLP or sham surgeries. In anesthetised mice, the cecum was exteriorized, ligated, and perforated. Control animals were exposed to sham surgery, in which the cecum was manipulated, but not ligated or punctured. After surgery, animals received daily fluid resuscitation (subcutaneous (s.c.) 50 ml/kg saline), antibiotic (intraperitoneal (i.p.) imipenem 25 mg/kg) and pain management (s.c. buprenorphine 0.2 mg/kg). Experiments were divided into 2 groups: (1) to assess 7-day survival, and (2) to identify a mechanism of action of a G9a inhibitor in vivo. All experimental mice were randomized and investigators were blinded to group assignment.
Assessment of protective effects of UNC0642 on sepsis-induced vascular leakage: lung injury score and loss of alveolar-capillary membrane integrity with increased albumin and IgM exudation into bronchoalveolar lavage fluid (BALF) was assessed at 24 hrs post treatment.

## COc1cc2c(NC3CCN(C(C)C)CC3)nc(N3CCC(F)(F)CC3)nc2cc1OCCCN1CCCC1 [UNC0642, 2-(4,4-Difluoropiperidin-1-yl)-6-methoxy-N-[1-(propan-2-yl)piperidin-4-yl]-7-(3-(pyrrolidin-1-yl)propoxy]quinazolin-4-amine]
[1]
  Reduction of LPS-induced ROS production: 40%
[2]; 3 dpf larvae, LPS 100 μg/ml + 1 μM UNC0642, 6 h, leaked red blood cells at tail fin
  LPS-induced vascular leakage: significantly reduced
[2]; comparison of UNC0642 and A366, zebrafish larvae, 27 μg/ml LPS, 24 h
  Rescue of sepsis-associated vascular leakage: able to rescue
HUVEC monolayer
  Transendothelial electrical resistance (TEER): improves
[3]
  TNFα-induced increased ROS production: significantly lowered
[4]
  Protein exudation into the alveolar space (total alveolar protein in the BALF): reduced protein exudation

Source: patent US11998549B2, “Methods of treating a vascular leakage-associated disease or disorder” (UNITY HEALTH TORONTO, priority 2019, dated 2024)
